{"source": "patent US3968233A", "about": "“α-Amino-γ-butyrolactones as sedatives” (priority 1975, dated 1976)", "key": {"[1]": {"test": "Protective effect against electroshock (MES)", "conditions": "phenobarbital Na 40 mg/kg i.p., 10 minutes before electroshock"}, "[2]": {"type": "in vivo, mouse", "conditions": "control experiments; 95-percent confidence limits", "procedure": "This type of antagonism was evaluated in the mouse in three ways, namely: (1) protection from death from one hypodermic injection of strychnine: (2) evaluation of the LD50 of strychnine in mice both treated and untreated with AP-28, and (3) influence on the time required to cause animals to die by slow intravenous perfusion of strychnine. […] Groups of six mice were used. (2) increasing amounts of strychnine sulfate were injected hypodermically. In two experiments 200 or 400 mg/kg of intraperitoneal AP-28 were given 30 minutes prior to strychnine injection and the LD50 was calculated. The following results were obtained (95-percent confidence limits): […]"}, "[3]": {"test": "Influence on amphetamine-induced hypermobility", "type": "in vivo, mouse", "conditions": "d-amphetamine sulfate 5 mg/kg i.p. alone", "procedure": "Six groups of 4 mice each were treated with 5 mg/kg d-amphetamine sulfate by intraperitoneal administration. Six groups of 4 animals each received the same dose of d-amphetamine sulfate plus 250 mg/kg of AP-28 intraperitoneally 15 minutes after d-amphetamine sulfate; six more groups of four animals each received saline solution and served as control animals. […] The number of times each animal crossed the light beam throughout the 10-minute test was noted."}, "[4]": {"test": "Enhancement of the hypnotic effect of sodium pentobarbital", "type": "in vivo, mouse", "conditions": "sodium pentobarbital 40 mg/kg i.p. alone", "procedure": "Forty mg/kg of sodium pentobarbital was injected intraperitoneally into mice and note was taken of animals losing the righting reflex and for how long. Other mice received a preliminary treatment with AP-28 at a dosage of 250 and 500 mg/kg, intraperitoneally, and thereafter sodium pentobarbital was given to them."}}, "note": "Where a name gives a salt, the structure may show the parent alone.", "data": [{"smiles": "CCC1(c2ccccc2)C(=O)NC(=O)NC1=O", "note": "[Phenobarbital Na, Phenobarbital sodium, reference compound]", "values": [{"measurement": "Number animals died", "setting": "[1]", "result": "0/8"}, {"measurement": "Number animals with clonic convulsions", "setting": "[1]; in parentheses number treated", "result": "8(8)"}, {"measurement": "Number animals with tonic convulsions", "setting": "[1]; in parentheses number treated", "result": "0(8)"}]}, {"smiles": "O=C1C[C@@H]2OCC=C3CN4CC[C@]56c7ccccc7N1[C@H]5[C@H]2[C@H]3C[C@H]46", "note": "[Strychnine, strychnine sulfate]", "values": [{"measurement": "LD50 of strychnine", "setting": "[2]", "result": "0.83 (1.02-0.67) mg/kg"}]}, {"smiles": "C[C@H](N)Cc1ccccc1", "note": "[d-amphetamine, d-amphetamine sulfate, reference compound]", "values": [{"measurement": "Mean number of crossings (± SE) in 10 minutes", "setting": "[3]", "result": "657 ± 59"}]}, {"smiles": "CCCC(C)C1(CC)C(=O)NC(=O)NC1=O", "note": "(stereo not shown) [sodium pentobarbital, reference compound]", "values": [{"measurement": "Animals under hypnosis/treated", "setting": "[4]", "result": "3/4"}, {"measurement": "Duration of hypnosis in minutes (m ± SE)", "setting": "[4]; zero assigned to animals not losing righting reflex", "result": "3.25 ± 3.4", "unit": "min"}]}]}
